From EP0186807A2, “Anthracycline derivatives, their microbiological preparation and their use as medicines” (HOECHST AKTIENGESELLSCHAFT, priority 1984, dated 1986)
Values after ≈ are worked out from the molar mass of the structure shown.

Experiments:
Bacillus subtilis = experiment: Bacteriostatic activity, agar well diffusion (inhibition zone); format: cell-based; settings: 1 mg/ml solution in a 6 mm well in agar containing Bacillus subtilis; read-out: Hofdurchmesser
Protocol: (§1) Bestimmt wurde die bakteriostatische Wirkung von Kesarirhodin. Die Resultate, die als Durchmesser (in Millimetern) der Hemmhöfe, erzeugt durch die Substanz in Form einer 1 mg/ml-Lösung in einem Loch von 6 mm Durchmesser in Agar, das den Testorganismus enthält, angegeben sind, werden in der nachfolgenden Tabelle, Tabelle II, dargestellt. Kesarirhodine sind gegen gram-positive Bakterien und Pilze wirksam und können deshalb als Antibiotika zur Behandlung von Pilz- und Staphylokokken-Infektionen, Diphterie, Pneumonie usw. eingesetzt werden.

[1] = system: Staphylococcus aureus 209P; experiment: as above; format: cell-based; settings: 1 mg/ml solution in a 6 mm well in agar containing Staphylococcus aureus 209P; read-out: Hofdurchmesser
Protocol: as §1

Candida albicans = experiment: Agar well diffusion (inhibition zone); format: cell-based; settings: 1 mg/ml solution in a 6 mm well in agar containing Candida albicans; read-out: Hofdurchmesser
Protocol: as §1

[2] = system: Mäuse-L 1210-Leukämiezellen; experiment: Proliferation test (14C-thymidine incorporation); format: cell-based; settings: Mus musculus, read-out: IC50 Proliferations-test
From the text: (§2) Die Ermittlung der zytostatischen Aktivität der Kesarirhodine erfolgte in der nachfolgend beschriebenen Weise an Mäuse-L 1210-Leukämiezellen.
Bei dieser in vitro-Methode ist es nach der Inkubation der Zellen mit verschiedenen Konzentrationen der Prüfsubstanz möglich, die eingebaute Menge eines radioaktiv markierten DNS-Vorläufers (z.B. 14C-Thymidin) in einer wachsenden Zelle zu bestimmen. Als Kontrolle dienen dem gleichen Verfahren unterzogenen unbehandelte L 1210-Zellen. Die Methode wird nachstehend kurz zusammengefaßt: • L 1210-Zellen in exponentieller Wachstumsphase (5 x 10^3/ml in RPMI 1640) werden 72 Stunden lang (37°C, 5 % C02, 95 % relative Feuchtigkeit) in einer 96-Loch-Mikrotiterplatte mit unterschiedlichen Konzentrationen der Prüfsubstanz inkubiert. Als Kontrollen werden Zellen verwendet, die lediglich mit dem frischen Medium in Berührung gebracht werden. Es werden vier Löcher für jede Medikamentenkonzentration und Kontrolle angelegt. Nach 65 Stunden werden 50 µl 14C Thymidin (1,5 oCi/ml) zugefügt, um die Zell-DNS zu markieren. Nach 7 Stunden Inkubation werden die Zellen geerntet, die DNS mit 5 % Trichloressigsäure abgetrennt und mit Wasser und Methanol gewaschen. Nach dem Trocknen bei 50°C wird die Szintillationszahl mit 5 ml Szintillationsflüssigkeit bestimmt.
Die Ergebnisse werden als Quotient des Szintillationsindex nach der Inkubation mit den Testsubstanzen mit dem der Kontrollsubstanz ausgedrückt. Mit den ermittelten Werten wird eine Dosiswirkungskurve gezeichnet und der Wert IC50 d.h. die Konzentration der Prüfsubstanz, die den Einbau von markiertem Thymidin im Vergleich zur Kontrolle um 50 % hemmt, graphisch ermittelt. Die IC50-Werte sind denen von Adriamycin in der folgenden Tabelle III gegenübergestellt.

[3] = system: Mäuse-L 1210-Leukämiezellen; experiment: Stem cell test (colony formation in soft agar, continuous incubation); format: cell-based; settings: Mus musculus, L1210, 168 h, read-out: IC50 Stammzellentest 7 Tage Inkubation
From the text: as §2
Diese Methode dient zum Nachweis der Wirkung der Prüfsubstanz auf das Wachstum von Leukämiezellen über mehrere Generationen (da die Dauer eines Zellzyklus 10 - 12 Stunden beträgt, werden innerhalb des Untersuchungszeitraumes von 7 Tagen rund 14 aufeinanderfolgende Generationen erfaßt).
In diesem Test beruht die Wirkung von zytotoxischen Substanzen auf der Verminderung der Zahl beobachtbarer Kolonien im Vergleich zur unbehandelten Kontrolle. Es wird folgende Methodik verwendet: • Pro Platte werden 500 L 1210-Leukämiezellen verwendet. Die Experimente werden bei kontinuierlicher Inkubation mit verschiedenen Konzentrationen der Prüfsubstanz durchgeführt, wobei die Substanz vor dem Aufbringen der Zellen auf die Platte der oberen Agarschicht beigemischt wird. Die Platten werden 7 Tage lang in einem Brutschrank gelagert (37°C, 5 % C023 95 % relative Luftfeuchtigkeit). Anschließend wird die Anzahl der entstandenen Kolonien mit einem Durchmesser von mehr als 60 um mit einem umgekehrten Mikroskop gezählt. Die Resultate werden als Prozentsatz der auf den behandelten Platten gebildeten Kolonien im Vergleich zu denen der unbehandelten Kontrolle ausgedrückt. Mit den ermittelten Werten wird eine Dosiswirkungskurve gezeichnet, aus welcher der IC50-Wert graphisch ermittelt wird. Die IC50-Werte der Kesarirhodine werden in Tabelle III mit denen von Adriamycin verglichen.

[4] = Solubility in solvents (qualitative); format: physicochemical
[5] = L1210, L 1210 cells, 72 h incubation, 14C-thymidine incorporation, read graphically from dose-response curve
[6] = 500 L 1210 cells per plate, soft agar, continuous incubation 7 days, colonies > 60 µm
[7] = in Hexan (n-Hexan) und Petroläther (Petroleumäther)
[8] = in Methanol, Aceton, Äthylacetat, Chloroform und schwachen Säuren

Row | IC50 [3, 6] [µg/mL] | Löslichkeit [4, 7] | Löslichkeit [4, 8] | SMILES | zone of inhibition at 1000 µg/mL (Bacillus subtilis) [mm] | zone of inhibition at 1000 µg/mL [1] [mm] | zone of inhibition at 1000 µg/mL (Candida albicans) [mm] | IC50 [2, 5] [µg/mL] | IC50 ([2]; L1210, 72 h) [µg/mL] | IC50 [3] [µg/mL]
1 | 0.028 (≈ 0.037 µM) | wenig löslich | löslich | CC[C@]1(O)Cc2c(O)c3c(c(O)c2[C@@H](O[C@H]2C[C@H](N(C)C)[C@H](O[C@H]4CC[C@H](O[C@H]5CC[C@H](O)[C@H](C)O5)[C@H](C)O4)[C@H](C)O2)C1)C(=O)c1c(O)cccc1C3=O [Kesarirhodin B] | 17 | 17 | 20 | 0.1 (≈ 0.132 µM) | – | –
2 | – | – | – | COc1cccc2c1C(=O)c1c(O)c3c(c(O)c1C2=O)C[C@@](O)(C(=O)CO)C[C@@H]3O[C@H]1C[C@H](N)[C@H](O)[C@H](C)O1 [Adriamycin, reference compound] | – | – | – | – | 0.006 (≈ 0.011 µM) | 0.022 (≈ 0.0405 µM)
3 | 0.031 (≈ 0.0402 µM) | wenig löslich | löslich | CC[C@]1(O)Cc2c(O)c3c(c(O)c2[C@@H](O[C@H]2C[C@H](N(C)C)[C@H](O[C@H]4C[C@H](O)[C@H](O[C@H]5CC[C@H](O)[C@H](C)O5)[C@H](C)O4)[C@H](C)O2)C1)C(=O)c1c(O)cccc1C3=O [Kesarirhodin A] | 17 | 15 | 20 | 0.031 (≈ 0.0402 µM) | – | –
